Measurements taken from patent US10369340B2, “Device and method for sustained release of low water solubility therapeutic agent in solubilizer” (N[…], INC., priority 2013, dated 2019).

Legend:
[1] = cited from earlier work
[2] = solubility of testosterone in water and in ethanol; type: physicochemical; details: ethanol relative to water
Source text: During use, IDD 100 can be used to administer API 200 by inserting IDD 100 into an area of a human anatomy, including for example, subcutaneously. With IDD 100 inserted into the desired anatomical area, portions of solubilizer 210 (with dissolved API 200) that are small enough to pass through channeled member 130 can be released over time into the area of the human anatomy or for systemic circulation. In certain embodiments, the solubility enhancement of API 200 and solubilizer 210 can range from approximately 2×, 3×, 4×, 5×, 6×, 7×, 8×, 9×, 10×, 11×, 12×, 13×, 14×, 15×, 16×, 17×, 18×, 19×, 20×, 21×, 22×, 23×, 24×, 25×, 26×, 27×, 28×, 29×, 30× or higher. In particular embodiments, the solubility enhancement can be up to 1000× and higher.

C[C@]12CC[C@H]3[C@@H](CCC4=CC(=O)CC[C@@]43C)[C@@H]1CC[C@@H]2O [testosterone]
solubility in ethanol ([1]; ethanol): approximately 750 mg/ml
native water solubility ([1]; water): 35 µg/mL
solubility enhancement (increase, ethanol vs water) [2]: 20,000 ×
